From PubChem BioAssay (NCI)
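GI50 is the concentration that inhibits growth by half. TGI: total growth inhibition.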

What was measured:
Assay in all cases: NCI-60 cell line screen, 384-well format
786-0 renal = system: 786-0 renal
A498 renal = system: A498 renal
A549 NSCLC = system: A549 NSCLC
ACHN renal = system: ACHN renal
BT-549 breast = system: BT-549 breast
CAKI-1 renal = system: CAKI-1 renal
CCRF-CEM leukemia = system: CCRF-CEM leukemia
COLO 205 colon = system: COLO 205 colon
DU-145 prostate = system: DU-145 prostate
EKVX NSCLC = system: EKVX NSCLC
HCC-2998 colon = system: HCC-2998 colon
HCT-116 colon = system: HCT-116 colon
HCT-15 colon = system: HCT-15 colon
HL-60(TB) leukemia = system: HL-60(TB) leukemia
HOP-62 NSCLC = system: HOP-62 NSCLC
HOP-92 NSCLC = system: HOP-92 NSCLC
HS 578T breast = system: HS 578T breast
HT29 colon = system: HT29 colon
IGROV1 ovarian = system: IGROV1 ovarian
K-562 leukemia = system: K-562 leukemia
KM12 colon = system: KM12 colon
LOX IMVI melanoma = system: LOX IMVI melanoma
M14 melanoma = system: M14 melanoma
MALME-3M melanoma = system: MALME-3M melanoma
MCF7 breast = system: MCF7 breast
MDA-MB-231 breast = system: MDA-MB-231 breast
MDA-MB-435 melanoma = system: MDA-MB-435 melanoma
MDA-MB-468 breast = system: MDA-MB-468 breast
MOLT-4 leukemia = system: MOLT-4 leukemia
NCI-H226 lung = system: NCI-H226 lung
NCI-H23 lung = system: NCI-H23 lung
NCI-H322M lung = system: NCI-H322M lung
NCI-H460 NSCLC = system: NCI-H460 NSCLC
NCI-H522 lung = system: NCI-H522 lung
NCI/ADR-RES ovarian = system: NCI/ADR-RES ovarian
OVCAR-3 ovarian = system: OVCAR-3 ovarian
OVCAR-4 ovarian = system: OVCAR-4 ovarian
OVCAR-5 ovarian = system: OVCAR-5 ovarian
PC-3 prostate = system: PC-3 prostate
RPMI-8226 leukemia = system: RPMI-8226 leukemia
RXF 393 renal = system: RXF 393 renal
SF-268 CNS = system: SF-268 CNS
SF-295 CNS = system: SF-295 CNS
SF-539 CNS = system: SF-539 CNS
SK-MEL-2 melanoma = system: SK-MEL-2 melanoma
SK-MEL-28 melanoma = system: SK-MEL-28 melanoma
SK-MEL-5 melanoma = system: SK-MEL-5 melanoma
SK-OV-3 ovarian = system: SK-OV-3 ovarian
SN12C renal = system: SN12C renal
SNB-19 CNS = system: SNB-19 CNS
SNB-75 CNS = system: SNB-75 CNS
SR leukemia = system: SR leukemia
SW-620 colon = system: SW-620 colon
T-47D breast = system: T-47D breast
TK-10 renal = system: TK-10 renal
U251 glioblastoma = system: U251 glioblastoma
UACC-257 melanoma = system: UACC-257 melanoma
UACC-62 melanoma = system: UACC-62 melanoma
UO-31 renal = system: UO-31 renal

In the case of `COc1cc(-c2ncn(/C=C\C(=O)OC(C)C)n2)cc(C(F)(F)F)c1`, the GI50 ([…]-0 renal) is reported as 37.3 nM, the TGI (786-0 renal) is reported as 1200 nM and the GI50 (A498 renal) is reported as 114 nM. For the same compound, the TGI (A498 renal) was 1250 nM, the GI50 (A549 NSCLC) was 87.4 nM and the TGI (A549 NSCLC) was 1360 nM. It also gave a GI50 (ACHN renal) of 57.5 nM, a TGI (ACHN renal) of 1500 nM and a GI50 (BT-549 breast) of 19 nM. For the same compound, the TGI (BT-549 breast) was 46.5 nM, the GI50 (CAKI-1 renal) was 34.7 nM and the TGI (CAKI-1 renal) was 3950 nM. For the same compound, the GI50 (CCRF-CEM leukemia) was 40.9 nM, the TGI (CCRF-CEM leukemia) was 182 nM and the GI50 (COLO 205 colon) was 48.2 nM. The TGI (COLO 205 colon) was 1260 nM, the GI50 (DU-145 prostate) was 162 nM and the TGI (DU-145 prostate) was 866 nM. The GI50 (EKVX NSCLC) was 429 nM, the TGI (EKVX NSCLC) was 6090 nM and the GI50 (HCC-2998 colon) was 89.2 nM. For the same compound, the TGI (HCC-2998 colon) was 838 nM, the GI50 (HCT-116 colon) was 85 nM and the TGI (HCT-116 colon) was 311 nM. For the same compound, the GI50 (HCT-15 colon) was 45.8 nM, the TGI (HCT-15 colon) was 1040 nM and the GI50 (HL-60(TB) leukemia) was 23.7 nM. The TGI (HL-60(TB) leukemia) was 118 nM, the GI50 (HOP-62 NSCLC) was 291 nM and the TGI (HOP-62 NSCLC) was 1530 nM. For the same compound, the GI50 (HOP-92 NSCLC) was 69.5 nM, the TGI (HOP-92 NSCLC) was 1550 nM and the GI50 (HS 578T breast) was 68.1 nM. It also gave a TGI (HS 578T breast) of 461 nM, a GI50 (HT29 colon) of 74.3 nM and a TGI (HT29 colon) of 1120 nM. It also gave a GI50 (IGROV1 ovarian) of 92.8 nM, a TGI (IGROV1 ovarian) of 2090 nM and a GI50 (K-562 leukemia) of 30.4 nM. The TGI (K-562 leukemia) was 177 nM, the GI50 (KM12 colon) was 217 nM and the TGI (KM12 colon) was 1150 nM. It also gave a GI50 (LOX IMVI melanoma) of 198 nM, a TGI (LOX IMVI melanoma) of 826 nM and a GI50 (M14 melanoma) of 123 nM. For the same compound, the TGI (M14 melanoma) was 382 nM, the GI50 (MALME-3M melanoma) was 171 nM and the TGI (MALME-3M melanoma) was 609 nM. The GI50 (MCF7 breast) was 65.9 nM, the TGI (MCF7 breast) was 982 nM and the GI50 (MDA-MB-231 breast) was 51.4 nM. The TGI (MDA-MB-231 breast) was 663 nM, the GI50 (MDA-MB-435 melanoma) was 43.3 nM and the TGI (MDA-MB-435 melanoma) was 210 nM. It also gave a GI50 (MDA-MB-468 breast) of 150 nM, a TGI (MDA-MB-468 breast) of 336 nM and a GI50 (MOLT-4 leukemia) of 12.6 nM. The TGI (MOLT-4 leukemia) was 25.9 nM, the GI50 (NCI-H226 lung) was 20.8 nM and the TGI (NCI-H226 lung) was 483 nM. It also gave a GI50 (NCI-H23 lung) of 56.4 nM, a TGI (NCI-H23 lung) of 1140 nM and a GI50 (NCI-H322M lung) of 295 nM. For the same compound, the TGI (NCI-H322M lung) was 2530 nM, the GI50 (NCI-H460 NSCLC) was 29.6 nM and the TGI (NCI-H460 NSCLC) was 163 nM. The TGI (NCI-H522 lung) was 92.6 nM, the GI50 (NCI/ADR-RES ovarian) was 54.9 nM and the TGI (NCI/ADR-RES ovarian) was 1270 nM. The GI50 (OVCAR-3 ovarian) was 26.4 nM, the TGI (OVCAR-3 ovarian) was 151 nM and the GI50 (OVCAR-4 ovarian) was 244 nM. For the same compound, the TGI (OVCAR-4 ovarian) was 2040 nM, the GI50 (OVCAR-5 ovarian) was 117 nM and the TGI (OVCAR-5 ovarian) was 10000 nM. For the same compound, the GI50 (PC-3 prostate) was 37.4 nM, the TGI (PC-3 prostate) was 232 nM and the GI50 (RPMI-8226 leukemia) was 13.6 nM. It also gave a TGI (RPMI-8226 leukemia) of 32.5 nM, a GI50 (RXF 393 renal) of 16.6 nM and a TGI (RXF 393 renal) of 68.7 nM. The GI50 (SF-268 CNS) was 29.9 nM, the TGI (SF-268 CNS) was 88.8 nM and the GI50 (SF-295 CNS) was 214 nM. The TGI (SF-295 CNS) was 2300 nM, the GI50 (SF-539 CNS) was 20.5 nM and the TGI (SF-539 CNS) was 71.2 nM. For the same compound, the GI50 (SK-MEL-2 melanoma) was 44.3 nM, the TGI (SK-MEL-2 melanoma) was 69.5 nM and the GI50 (SK-MEL-28 melanoma) was 222 nM. It also gave a TGI (SK-MEL-28 melanoma) of 1610 nM, a GI50 (SK-MEL-5 melanoma) of 137 nM and a TGI (SK-MEL-5 melanoma) of 601 nM. For the same compound, the GI50 (SK-OV-3 ovarian) was 2340 nM, the TGI (SK-OV-3 ovarian) was 14300 nM and the GI50 (SN12C renal) was 283 nM. The TGI (SN12C renal) was 1770 nM, the GI50 (SNB-19 CNS) was 444 nM and the TGI (SNB-19 CNS) was 3150 nM. For the same compound, the GI50 (SNB-75 CNS) was 91.9 nM, the TGI (SNB-75 CNS) was 311 nM and the GI50 (SR leukemia) was 11 nM. For the same compound, the TGI (SR leukemia) was 23.7 nM, the GI50 (SW-620 colon) was 56.1 nM and the TGI (SW-620 colon) was 1250 nM. The GI50 (T-47D breast) was 229 nM, the TGI (T-47D breast) was 3730 nM and the GI50 (TK-10 renal) was 37.9 nM. For the same compound, the TGI (TK-10 renal) was 1200 nM, the GI50 (U251 glioblastoma) was 39.2 nM and the TGI (U251 glioblastoma) was 275 nM. It also gave a GI50 (UACC-257 melanoma) of 552 nM, a TGI (UACC-257 melanoma) of 4600 nM and a GI50 (UACC-62 melanoma) of 42.4 nM. For the same compound, the TGI (UACC-62 melanoma) was 179 nM, the GI50 (UO-31 renal) was 166 nM and the TGI (UO-31 renal) was 1580 nM.
